Results published in article PMC11494886, “Discovery and design of molecular glue enhancers of CDK12–DDB1 interactions for targeted degradation of cyclin K” (RSC Chemical Biology, 2024).
Like-named read-outs stand apart in the source and are kept apart here.

Columns and labels:
CDK12/cyclin K + DDB1 = target: T1, CDK12/cyclin K + DDB1 (Homo sapiens, UniProt Q16531+Q9NYV4, DEL396-705); experiment: Microscale thermophoresis, ternary complex formation; assay type: binding; details: MST
T1 construct: The kinase domain of human CDK12 (Uniprot: Q9NYV4; a.a; 715–1050); GST (N, cleaved yes); made in house; host or cells: Spodoptera frugiperda SF9 insect cells (Bac-to-Bac); CDK12/cyclin K co-infected with S. cerevisiae CAK1
T1 sequence (Q16531 with tags, fused parts or gaps DEL396-705): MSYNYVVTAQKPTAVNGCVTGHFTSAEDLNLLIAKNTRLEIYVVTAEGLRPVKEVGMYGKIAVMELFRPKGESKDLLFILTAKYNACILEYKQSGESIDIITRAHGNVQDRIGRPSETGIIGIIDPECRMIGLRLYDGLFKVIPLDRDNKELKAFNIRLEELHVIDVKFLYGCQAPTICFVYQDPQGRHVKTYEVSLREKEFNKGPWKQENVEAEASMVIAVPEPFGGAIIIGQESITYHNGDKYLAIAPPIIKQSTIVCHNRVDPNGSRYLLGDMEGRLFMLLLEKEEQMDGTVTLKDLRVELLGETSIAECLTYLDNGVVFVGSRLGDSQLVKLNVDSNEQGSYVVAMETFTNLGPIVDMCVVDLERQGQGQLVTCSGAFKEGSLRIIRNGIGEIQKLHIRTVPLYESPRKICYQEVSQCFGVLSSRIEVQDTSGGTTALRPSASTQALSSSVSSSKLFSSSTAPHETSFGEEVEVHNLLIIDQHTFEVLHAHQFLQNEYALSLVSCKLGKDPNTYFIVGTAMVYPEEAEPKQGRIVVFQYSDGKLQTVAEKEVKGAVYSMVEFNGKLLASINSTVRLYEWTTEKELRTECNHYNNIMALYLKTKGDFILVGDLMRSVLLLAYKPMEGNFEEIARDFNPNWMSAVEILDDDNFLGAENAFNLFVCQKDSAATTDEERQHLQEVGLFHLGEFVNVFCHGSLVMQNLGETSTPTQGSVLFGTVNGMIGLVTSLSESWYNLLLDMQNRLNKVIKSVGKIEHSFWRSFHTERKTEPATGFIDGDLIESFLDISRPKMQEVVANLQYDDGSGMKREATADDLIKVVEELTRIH
T1 sequence (Q9NYV4 715-1050, stated change not applied): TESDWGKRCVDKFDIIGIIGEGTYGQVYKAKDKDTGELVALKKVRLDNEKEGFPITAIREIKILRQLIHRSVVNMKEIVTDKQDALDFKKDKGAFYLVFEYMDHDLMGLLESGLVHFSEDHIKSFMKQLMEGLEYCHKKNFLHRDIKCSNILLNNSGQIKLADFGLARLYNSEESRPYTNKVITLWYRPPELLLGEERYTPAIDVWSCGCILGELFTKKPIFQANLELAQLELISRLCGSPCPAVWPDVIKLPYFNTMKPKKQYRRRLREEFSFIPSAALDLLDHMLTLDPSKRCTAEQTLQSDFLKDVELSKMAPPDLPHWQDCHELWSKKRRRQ
T1 sequence (O75909 11-267 partner limits assumed): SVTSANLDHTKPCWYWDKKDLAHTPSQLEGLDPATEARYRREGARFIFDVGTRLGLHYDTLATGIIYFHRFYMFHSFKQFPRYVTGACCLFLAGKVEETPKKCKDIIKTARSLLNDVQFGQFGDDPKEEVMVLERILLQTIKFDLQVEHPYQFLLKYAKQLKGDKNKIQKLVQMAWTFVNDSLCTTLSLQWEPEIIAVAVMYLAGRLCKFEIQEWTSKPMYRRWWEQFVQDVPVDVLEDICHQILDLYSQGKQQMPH
Description: Finally, the capacity of small molecules to induce a ternary complex between CDK12/cyclin K and DDB1 in vitro was assessed by microscale thermophoresis (MST). Labeled DDB1ΔBPB was combined with purified CDK12/cyclin K, and fluorescence intensity was monitored with increasing compound concentrations.
Cell pellets were harvested 48 hours post infection via centrifugation and lysed in buffer A (50 mM Tris–HCl (pH 8.0), 200 mM NaCl, 10 mM imidazole, 0.5 mM tris(2-carboxyethyl) phosphine (TCEP)) supplemented with EDTA-free Pierce™ protease inhibitor tablet (Thermo Fisher Scientific). […] The concentrated protein at 2 mg mL^−1 was flash-frozen in liquid nitrogen and stored at −80 °C.
Full-length S. cerevisiae CAK1 (Uniprot: P43568) with an N-terminal His6 tag was subcloned into pFastBac 1 vector. […] The eluted CDK12/cyclin K complex was concentrated to 2 mg mL^−1, flash-frozen in liquid nitrogen and stored at −80 °C.
A protocol to assess ternary binding of molecular glues with CDK12/cycK and DDB1 by MST was established using published procedures for PROTAC interaction with bromodomains and E3 ubiquitin ligases.[38] His8-DDB1-ΔBPB was labeled with the MO-L018 Monolith™ His-tag Labeling Kit RED-tris-NTA 2nd Generation (NanoTemper Technologies) following the instruction manual. 100 nM dye was mixed with 200 nM DDB1 in 50 mM HEPES pH 7.5, 150 mM NaCl, 5% glycerol, 0.05% Tween, and incubated at room temperature for 30 min. […] MST traces were recorded using standard parameters: 5 s MST power off, 30 s MST power on and 5 s MST power off. Measurements were taken at −1 to 0 s (cold region) and 9–10 s (hot region). Data were analyzed using a fitting function derived from the law of mass action:1 [drawing 6] where f(c) is the fluorescence signal (Fnorm) at a given ligand concentration (c), B is Fnorm of fully liganded DDB1 at high ligand concentrations, U is Fnorm of DDB1 alone at low ligand concentrations, Kd is the dissociation constant or binding affinity, cT is the final concentration of DDB1 in the assay (Fig. 3G). For normalization, the data were first transformed using eqn (2) where y is the fraction bound, followed by fitting to eqn (3) (Fig. 5B–E).2 [drawing 7] 3 [drawing 8]

cyclin K = experiment: Immunofluorescence of nuclear cyclin K in MDA-MB-231 cells; assay type: cell-based, human; details: MDA-MB-231 cells, 0.5 µM, 2 h
Description: Cells were fixed with 4% PFA in PBS at room temperature, permeabilized with 0.1% Triton X-100 in PBS, and blocked with 3% BSA in PBS at room temperature. Cells were incubated with primary antibodies overnight at 4 °C, followed by incubation with Alexa-Fluor conjugated secondary antibodies for 1 hour at room temperature. Cell nuclei were stained using DAPI. Images were acquired on a confocal microscope (Leica). ImageJ and QuPath were used for image analysis.
Figure S8. Immunofluorescence staining for cyclin K degradation. MDA-MB-231 cells were
treated for 2 h with either DMSO or the indicated compounds (0.5 µM) . Cells were fixed and
Nuclei were stained with DAPI (blue). […]

HiBiT-tagged cyclin K = experiment: HiBiT cyclin K degradation assay (DC50, Dmax); assay type: cell-based; details: HiBiT-CCNK KI A549 cells, 2 hours, vs DMSO
Description: Next, we utilized HiBiT technology (Promega) for quantitative analysis of cyclin K degrader activity. […] Importantly, knockout of CDK12 using CRISPR/Cas9 protected cyclin K from SR-4835-induced degradation (Fig. 1D). We verified the depletion of CDK12 in HEK-293T cells (Fig. S3, ESI ^†).
The HiBiT-CCNK KI A549 cells (Promega) were seeded in 384 well plate and treated with the test compounds for 2 hours in a dose dependent manner. Nano-Glo® HiBiT Lytic Detection System (Promega) composed of the Nano-Glo® HiBiT Lytic Substrate, Nano-Glo® HiBiT Lytic Buffer and LgBiT Protein was used as per the manufacturer's instructions. Briefly, a 2× Nano-Glo® HiBiT Lytic Detection Reagent mixture was prepared by adding 20 μL of Nano-Glo® HiBiT Lytic Substrate and 10 μL of LgBiT protein per every 1 mL of Nano-Glo® HiBiT Lytic Buffer. After incubating the cells with the 2× Nano-Glo® HiBiT Lytic Detection Reagent mixture, luminescence was measured. HiBiT tagged cyclin K present at any given concentration was measured by normalizing the luminescence signal at that concentration to the luminescence signal from the DMSO (control) cells. The concentration necessary to achieve a 50% reduction in cyclin K levels (DC50) and the maximum achievable reduction in cyclin K levels (Dmax) was computed from this assay.

CDK12 = CDK12 (Homo sapiens, UniProt Q9NYV4); experiment: CDK12 functional (kinase inhibition) assay; assay type: biochemical; details: vs MR-1187
Sequence of CDK12 (Q9NYV4 whole entry): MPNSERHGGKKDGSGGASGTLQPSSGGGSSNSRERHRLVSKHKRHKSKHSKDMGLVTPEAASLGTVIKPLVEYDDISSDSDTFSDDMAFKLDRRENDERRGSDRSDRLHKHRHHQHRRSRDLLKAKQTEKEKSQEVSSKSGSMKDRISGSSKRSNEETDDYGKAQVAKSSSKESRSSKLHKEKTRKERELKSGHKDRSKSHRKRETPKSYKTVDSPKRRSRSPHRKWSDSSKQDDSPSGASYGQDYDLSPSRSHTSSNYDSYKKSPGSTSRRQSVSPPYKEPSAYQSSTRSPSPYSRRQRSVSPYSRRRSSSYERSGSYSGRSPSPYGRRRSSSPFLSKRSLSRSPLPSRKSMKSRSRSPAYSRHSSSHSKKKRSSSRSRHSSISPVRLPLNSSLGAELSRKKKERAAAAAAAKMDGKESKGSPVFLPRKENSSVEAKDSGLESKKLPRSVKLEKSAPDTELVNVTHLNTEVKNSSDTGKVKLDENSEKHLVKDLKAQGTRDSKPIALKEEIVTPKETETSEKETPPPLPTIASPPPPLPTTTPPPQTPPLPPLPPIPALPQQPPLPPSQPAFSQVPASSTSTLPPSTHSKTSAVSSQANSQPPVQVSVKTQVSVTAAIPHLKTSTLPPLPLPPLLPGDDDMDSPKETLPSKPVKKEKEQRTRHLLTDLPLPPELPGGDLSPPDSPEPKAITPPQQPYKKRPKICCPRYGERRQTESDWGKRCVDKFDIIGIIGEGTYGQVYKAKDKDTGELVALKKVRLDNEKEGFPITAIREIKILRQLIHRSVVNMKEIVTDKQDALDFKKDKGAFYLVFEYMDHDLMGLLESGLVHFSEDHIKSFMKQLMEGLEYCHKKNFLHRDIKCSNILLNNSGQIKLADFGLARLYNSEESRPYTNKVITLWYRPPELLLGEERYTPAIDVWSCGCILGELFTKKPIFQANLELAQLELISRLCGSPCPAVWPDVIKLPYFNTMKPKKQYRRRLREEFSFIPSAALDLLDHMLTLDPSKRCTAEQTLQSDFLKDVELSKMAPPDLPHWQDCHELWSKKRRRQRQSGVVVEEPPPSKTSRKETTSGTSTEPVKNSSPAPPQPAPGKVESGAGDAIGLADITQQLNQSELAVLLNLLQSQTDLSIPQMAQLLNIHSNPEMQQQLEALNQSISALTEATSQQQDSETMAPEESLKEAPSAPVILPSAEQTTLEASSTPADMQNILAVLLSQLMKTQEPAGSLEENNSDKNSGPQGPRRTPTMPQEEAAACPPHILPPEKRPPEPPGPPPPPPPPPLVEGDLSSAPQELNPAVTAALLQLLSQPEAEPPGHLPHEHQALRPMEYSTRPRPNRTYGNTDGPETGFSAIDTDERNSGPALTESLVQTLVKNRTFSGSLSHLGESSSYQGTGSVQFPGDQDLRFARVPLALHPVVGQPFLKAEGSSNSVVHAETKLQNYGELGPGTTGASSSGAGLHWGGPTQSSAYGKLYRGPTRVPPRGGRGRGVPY
Sequence of CDK12 (O75909 whole entry partner): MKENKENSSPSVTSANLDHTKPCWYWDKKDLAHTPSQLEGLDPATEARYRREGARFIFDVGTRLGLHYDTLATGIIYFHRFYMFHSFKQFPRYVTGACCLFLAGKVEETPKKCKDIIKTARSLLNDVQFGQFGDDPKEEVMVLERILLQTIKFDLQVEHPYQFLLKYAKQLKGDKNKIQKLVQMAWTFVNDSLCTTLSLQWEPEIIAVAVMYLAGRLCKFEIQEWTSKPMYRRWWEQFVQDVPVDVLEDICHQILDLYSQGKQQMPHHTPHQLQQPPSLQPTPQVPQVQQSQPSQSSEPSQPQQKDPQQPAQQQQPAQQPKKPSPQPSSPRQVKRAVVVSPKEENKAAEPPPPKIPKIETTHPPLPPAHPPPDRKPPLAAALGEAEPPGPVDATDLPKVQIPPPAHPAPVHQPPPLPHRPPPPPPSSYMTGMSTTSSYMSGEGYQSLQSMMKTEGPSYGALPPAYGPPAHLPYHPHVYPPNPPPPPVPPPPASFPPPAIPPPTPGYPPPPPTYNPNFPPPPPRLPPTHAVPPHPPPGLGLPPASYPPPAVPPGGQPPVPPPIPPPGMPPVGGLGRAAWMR

Cdk12/CycK and DDB1ΔB [1] = target: T2, Cdk12/CycK and DDB1ΔB (Homo sapiens, UniProt Q16531+Q9NYV4, DEL396-705); experiment: GST pulldown assay, recruitment of DDB1ΔB to Cdk12/CycK; assay type: binding; details: GST-Cdk12/GST-CycK bait, 5 μM compound, vs DMSO
T2 construct: the Cdk12 (714–1063)/CycK (1–267) complex and the DDB1ΔB protein; made in house; host or cells: Sf9 insect cells (MultiBacTurbo)
T2 sequence (Q9NYV4 714-1063, stated change not applied): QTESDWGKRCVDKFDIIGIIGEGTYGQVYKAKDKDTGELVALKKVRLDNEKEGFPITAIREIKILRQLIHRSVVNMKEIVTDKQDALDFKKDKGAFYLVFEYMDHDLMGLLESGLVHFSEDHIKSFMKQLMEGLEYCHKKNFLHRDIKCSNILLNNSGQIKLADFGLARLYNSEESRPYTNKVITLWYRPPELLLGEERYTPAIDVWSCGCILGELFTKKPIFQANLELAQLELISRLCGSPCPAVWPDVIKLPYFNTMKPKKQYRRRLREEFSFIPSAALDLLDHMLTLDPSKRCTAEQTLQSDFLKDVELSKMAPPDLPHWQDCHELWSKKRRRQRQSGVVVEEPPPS
T2 sequence (O75909 1-267 partner limits assumed): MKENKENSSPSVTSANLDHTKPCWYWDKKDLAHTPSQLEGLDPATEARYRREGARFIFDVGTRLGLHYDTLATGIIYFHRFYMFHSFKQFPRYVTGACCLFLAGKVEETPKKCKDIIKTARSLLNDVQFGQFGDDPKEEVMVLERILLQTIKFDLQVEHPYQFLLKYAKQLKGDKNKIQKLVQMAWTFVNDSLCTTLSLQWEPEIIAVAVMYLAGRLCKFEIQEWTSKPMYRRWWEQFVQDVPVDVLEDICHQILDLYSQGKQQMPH
T2 sequence (Q16531 with tags, fused parts or gaps DEL396-705): as the sequence (Q16531 with tags, fused parts or gaps DEL396-705) above
Description: The pulldown assay was utilized to identify drug-triggered protein–protein interactions involving the Cdk12 (714–1063)/CycK (1–267) complex and the DDB1ΔB protein. In this assay, purified GST-tagged Cdk12 construct complexed with GST-CycK was combined with equimolar amounts of His6-tagged DDB1ΔB (5 μM) in the presence of 5 μM of the respective small molecular compound in pulldown assay buffer (50 mM Hepes pH 7.4, 200 mM NaCl, 0.25 mM TCEP, 0.05% (v/v) Tween20), ensuring a 2% total DMSO concentration. Experimental controls included samples supplemented with 2% DMSO instead of compound as well as samples devoid of the GST-tagged Cdk12/CycK complex. Each sample was individually added to approximately 50 μL of pre-equilibrated glutathione agarose beads (Thermo Fisher Scientific). The bead suspensions were then subjected to a 2 h incubation period at room temperature with gentle agitation. After incubation, the beads were pelleted by centrifugation at 700 × g for 4 min, the supernatant was discarded, and the beads were washed three-times with 100 μL of pulldown assay buffer. Following the washing step, bound proteins were eluted from the beads with 50 μL of pulldown assay buffer supplemented with 10 mM GSH for 1 h at room temperature under rotation. Subsequently, the beads were again pelleted by centrifugation at 700 × g for 4 min and the resulting supernatants containing eluted protein fractions were mixed with 6 × SDS sample buffer at a 1 : 1 (v/v) ratio. The eluted protein samples were separated by SDS-PAGE and subjected to Coomassie brilliant blue staining for visualization and analysis.

Cdk12/CycK and DDB1ΔB [2] = target: T2, Cdk12/CycK and DDB1ΔB; experiment: Dynamic light scattering of SEC peak fractions; assay type: binding; details: SEC peak middle fractions, vs negative controls
Description: To evaluate particle size distribution in liquid solution, dynamic light scattering was employed. Specifically, 10 μL fractions from the central region of peaks obtained in analytical size exclusion chromatography runs were analyzed. This analysis was performed using a DynaPro NanoStar 672 (Wyatt Technology) in a disposable DLS MicroCuvette (Wyatt Technology), while maintaining a constant temperature of 25 °C. Each measurement was conducted with an acquisition time of 3 s, and each data point depicted in the Results section represents the average of 20 individual DLS measurements. The hydrodynamic radius of the protein samples was determined using the processing and analysis software DYNAMICS.

Cdk12/CycK and DDB1ΔB [3] = target: T2, Cdk12/CycK and DDB1ΔB; experiment: Analytical size-exclusion chromatography of DDB1ΔB and Cdk12/CycK; assay type: binding; details: 20 μM proteins, 60 μM compound, vs DMSO and THZ531
Description: Analytical size-exclusion chromatography was employed to investigate compound-induced protein–protein interactions between the heterodimeric Cdk12 (714–1063)/CycK (1–267) complex and the RING E3 ligase-associated adaptor protein DDB1ΔB. The analysis was conducted on an Agilent 1260 Infinity II HPLC system (Agilent Technologies), coupled with a Superdex 200 Increase 3.2/300 column (Cytiva), pre-equilibrated in Cdk12 SEC buffer (20 mM Hepes pH 7.8, 400 mM NaCl, 1 mM TCEP) supplemented with 1 g L^−1 carboxymethyl-dextran. Purified proteins, combined in equimolar ratios (20 μM Cdk12/CycK and DDB1ΔB, respectively) were supplemented with 3-fold molar excess of small molecular compounds. The resulting protein mixtures were diluted to a final volume of 25 μL using the kinases SEC-buffer ensuring a final DMSO concentration of 2%, followed by an incubation period of 10 min. Upon injection into the analytical system, the chromatography was conducted at a controlled flow rate of 0.05 mL min^−1, with protein absorbance monitored at 280 nm wavelength. Peak fractions were collected drop by drop and subsequently subjected to analysis via dynamic light scattering (DLS) to assess their size distribution, along with SDS-PAGE analysis to determine the composition of the protein complex.

Kd (CDK12/cyclin K + DDB1; labeled DDB1 + CDK12/cyclin K, run #1, read-out: Kd ternary complex formation, replicate #1) [nM]	Kd (CDK12/cyclin K + DDB1; labeled DDB1 + CDK12/cyclin K, run #2, read-out: Kd ternary complex formation, replicate #2) [nM]	Kd (CDK12/cyclin K + DDB1; labeled DDB1 + CDK12/cyclin K, run #3, read-out: Kd ternary complex formation, replicate #3) [nM]	Kd (CDK12/cyclin K + DDB1; labeled DDB1ΔBPB 10 nM + CDK12/cyclin K 1000 nM, mean of replicates, read-out: Kd ternary complex formation (average)) [nM]	fold better CDK12 kinase inhibition compared to MR-1187 (CDK12) [fold]	recruitment of DDB1ΔB in pulldown (Cdk12/CycK and DDB1ΔB [1])	hydrodynamic radius (DLS) (Cdk12/CycK and DDB1ΔB [2])	retention time in analytical SEC (ternary complex formation) (Cdk12/CycK and DDB1ΔB [3])	SMILES	cyclin K nuclear intensity compared to control (cyclin K)	Dmax (maximum reduction in cyclin K levels) (HiBiT-tagged cyclin K) [%]
8.7 ± 2.7	10.3 ± 4	9.6 ± 3.3	9.5	35				CCc1cnn2c(NCc3nc4cc(Cl)c(Cl)cc4[nH]3)cc(N3CCCC[C@H]3CCO)nc12 [MR-1226, (S)-2-(1-(7-(((5,6-Dichloro-1H-benzo[d]imidazol-2-yl)methyl)amino)-3-ethylpyrazolo[1,5-a]pyrimidin-5-yl)piperidin-2-yl)ethan-1-ol]	reduced	> 95
					enrichment of DDB1ΔB fractions	significantly increased	reduced retention times	CC[C@H](CO)Nc1nc(NCc2ccc(-c3ccccn3)cc2)c2ncn(C(C)C)c2n1 [CR8, reference compound]		
